Laboratory results from US9499554B2, “Anti-influenza compositions and methods” (priority 2013, dated 2016).
Values after ≈ are worked out from the molar mass of the structure shown. Like-named read-outs stand apart in the source and are kept apart here. Marks after values point to notes of the source that are not given here.

Tests used:
[1] = system: Influenza A H1N1 CA/04/2009 (Pandemic H1N1); assay: microbe, parasite or virus in culture; assay type: cell-based
[2] = system: Influenza A H3N2 Brisbane/10/2007; assay: microbe, parasite or virus in culture; assay type: cell-based
[3] = system: Influenza A H5N1 VN/1203/2004 Hybrid (on H1N1 backbone); assay: microbe, parasite or virus in culture; assay type: cell-based
Influenza B Florida [4] = assay: microbe, parasite or virus in culture; assay type: cell-based
[5] = system: Parainfluenza 3 14702 (MA-104 cells); assay: organism not typed; assay type: cell-based
[6] = system: Influenza A H1N1 CA/04/2009 (Pandemic H1N1); assay: microbe, parasite or virus in culture; assay type: cell-based; conditions: for EC50: Influenza A virus
[7] = system: Influenza A H3N2 Brisbane/10/2007; assay: microbe, parasite or virus in culture; assay type: cell-based; conditions: for EC50: Influenza A virus
[8] = system: Influenza A H5N1 VN/1203/2004 Hybrid (on H1N1 backbone); assay: microbe, parasite or virus in culture; assay type: cell-based; remark: listed apart in the source
Influenza B Florida [9] = assay: microbe, parasite or virus in culture; assay type: cell-based; conditions: for EC50: Influenza B virus
[10] = system: Parainfluenza 3 14702 (MA-104 cells); assay: organism not typed; assay type: cell-based; remark: listed apart in the source
A/CA/27/2007 (H1N1) = assay: microbe, parasite or virus in culture; assay type: cell-based; conditions: Influenza A virus, H1N1, MDCK, read-out: EC50, antiviral activity in MDCK cells
A/Vic/3/75 (H3N2) = assay: microbe, parasite or virus in culture; assay type: cell-based; conditions: Influenza A virus, H3N2, MDCK, read-out: EC50, antiviral activity in MDCK cells
influenza viruses [11] = assay: organism not typed; assay type: cell-based; conditions: read-out: EC50 values against the influenza viruses by visual assay
influenza viruses [12] = assay: organism not typed; assay type: cell-based; conditions: read-out: EC50 values against the influenza viruses as measured by NR assay
[13] = system: influenza virus H3N2 (A/Victoria/3/75); assay: microbe, parasite or virus in culture; assay type: cell-based; conditions: H3N2, MDCK; 72 hrs; read-out: Percent Inhibition of Cytopathic Effect
[14] = system: H3N2 virus (A/Victoria/3/75); set-up: species or system Balb/C mice; conditions: mouse, in vivo
[15] = system: H3N2 virus (A/Victoria/3/75); set-up: species or system Balb/C mice; conditions: mouse, in vivo, po
MDCK cells [16] = conditions: dog
MA-104 cells [17] = conditions: African green monkey
MDCK cells [18] = conditions: dog; remark: listed apart in the source
MA-104 cells [19] = conditions: African green monkey; remark: listed apart in the source
in vivo = conditions: female, Balb/c, mouse, po, 100 mg/kg

With `Nc1ncnc2c([C@@H]3N[C@H](CO)[C@@H](O)[C@H]3O)c[nH]c12` [compound 1, (2S,3S,4R,5R)-2-(4-Amino-5H-pyrrolo[3,2-d]pyrimidin-7-yl)-5-(hydroxymethyl)pyrrolidine-3,4-diol] the “SI, Visual CPE Assay” value [1] was 120, the EC50 ([1]; Influenza A virus, H1N1, read-out: EC50, Visual CPE Assay) was 1.8 µg/mL (≈ 6.79 µM) and the “SI, Visual CPE Assay” value [2] was 140. For the same compound, the EC50 ([2]; Influenza A virus, H3N2, read-out: EC50, Visual CPE Assay) was 1.8 µg/mL (≈ 6.79 µM), the “SI, Visual CPE Assay” value [3] was >1600 and the “SI, Visual CPE Assay” value (Influenza B Florida [4]) was 290. For the same compound, the EC50 (Influenza B Florida [4]; Influenza B virus, Influenza B Florida, read-out: EC50, Visual CPE Assay) was 1.8 µg/mL (≈ 6.79 µM), the “SI, Visual CPE Assay” value [5] was 7.1 and the EC50 ([5]; MA104, read-out: EC50, Visual CPE Assay) was 14 µg/mL (≈ 52.8 µM). The “SI, Neutral Red Uptake Assay” value [6] was 120, the EC50 ([6]; H1N1, MDCK, read-out: EC50, antiviral activity in MDCK cells) was 1.8 µg/mL (≈ 6.79 µM) and the EC50 ([6]; H1N1, read-out: EC50, Neutral Red Uptake Assay) was 1.8 µg/mL (≈ 6.79 µM). The “SI, Neutral Red Uptake Assay” value [7] was 79, the EC50 ([7]; H3N2, MDCK, read-out: EC50, antiviral activity in MDCK cells) was 5.6 µg/mL (≈ 21.1 µM) and the EC50 ([7]; H3N2, read-out: EC50, Neutral Red Uptake Assay) was 5.6 µg/mL (≈ 21.1 µM). The “SI, Neutral Red Uptake Assay” value [8] was 130, the “SI, Neutral Red Uptake Assay” value (Influenza B Florida [9]) was 38 and the EC50 (Influenza B Florida [9]; B/Florida, MDCK cells, Table 2, read-out: EC50, antiviral activity in MDCK cells) was 1.8 µg/mL (≈ 6.79 µM). For the same compound, the EC50 (Influenza B Florida [9]; Influenza B Florida, read-out: EC50, Neutral Red Uptake Assay) was 1.8 µg/mL (≈ 6.79 µM), the “SI, Neutral Red Uptake Assay” value [10] was 52 and the EC50 ([10]; MA104, read-out: EC50, Neutral Red Uptake Assay) was 10 µg/mL (≈ 37.7 µM). For the same compound, the EC50 (A/CA/27/2007 (H1N1)) was 0.66 µg/mL (≈ 2.49 µM), the EC50 (A/Vic/3/75 (H3N2)) was 4 µg/mL (≈ 15.1 µM) and the EC50 (influenza viruses [11]) was 0.63 to 1.8 µg/mL (≈ 2.37 to 6.79 µM). The EC50 (influenza viruses [12]) was 1.8 to 5.6 µg/mL (≈ 6.79 to 21.1 µM), the inhibition at 1.8 µM [13] was 1.6 ± 6.1% and the inhibition at 7.8 µM [13] was 25.8 ± 4.8%. For the same compound, the “Mean day to death (Mean ± SEM)” value [14] was >16 days, the Survival/Total [14] was 10/10* and the “effect on survival and weight loss in infected mice” value [14] was “improves the survival and weight loss”. The “effect on survival and weight loss in infected mice” value [15] was “improves the survival and weight loss”, the “Mean day to death (Mean ± SEM)” value ([15]; 30 mg/kg/day) was >16 days and the “Mean weight change (grams ± SEM) Day 9” value ([15]; 30 mg/kg/day) was −1.58 ± 0.32 grams. For the same compound, the Survival/Total ([15]; 30 mg/kg/day) was 10/10*, the “Mean day to death (Mean ± SEM)” value ([15]; 100 mg/kg/day) was >16 days and the Survival/Total ([15]; 100 mg/kg/day) was 10/10*. For the same compound, the “Mean day to death (Mean ± SEM)” value ([15]; 300 mg/kg/day) was >16 days, the “Mean weight change (grams ± SEM) Day 9” value ([15]; 300 mg/kg/day) was 0.66 ± 0.23 grams and the Survival/Total ([15]; 300 mg/kg/day) was 10/10*. For the same compound, the “IC50 (50% cytotoxic dose), Visual CPE Assay” value (MDCK cells [16]) was >1000 µg/mL, the “IC50 (50% cytotoxic dose), Visual CPE Assay” value (MA-104 cells [17]) was 100 µg/mL (≈ 377 µM) and the “IC50 (50% cytotoxic dose), Neutral Red Uptake Assay” value (MDCK cells [18]) was 130 µg/mL (≈ 490 µM). The “IC50 (50% cytotoxic dose), Neutral Red Uptake Assay” value (MA-104 cells [19]) was 52 µg/mL (≈ 196 µM), the concentration at 0.17 hr (in vivo) was 607 ± 61 ng/mL and the concentration at 0.5 hr (in vivo) was 910 ± 122 ng/mL. It also gave a concentration at 1 hr (in vivo) of 342 ± 122 ng/mL, a concentration at 3 hr (in vivo) of 89.7 ± 8.5 ng/mL and a concentration at 5 hr (in vivo) of 94.2 ± 6.4 ng/mL. For the same compound, the concentration at 24 hr (in vivo) was 50.5 ± 8.9 ng/mL.
